Results taken from patent publication US9173912B2 (priority 2008, dated 2015).
In brackets after ≈: the same amount, converted by molar mass.

Assays:
[1] = tested on: herpes simplex viruses type 1 (HSV-1); test: Virucidal activity: viral suspension exposed to extract, then infectiousness in cells measured; type: cell-based; settings: Herpes Simplex Virus I
Experimental: (§1) In addition, a quite universal usability of the invented extract on viral diseases could be shown with herpes simplex viruses type 1 (HSV-1):
In order to define the virucidal activity, a viral suspension is exposed to the extract and then the infectiousness of viruses in the cells is measured. Ethanol is used for positive controls.

[2] = tested on: herpes simplex viruses type 1 (HSV-1); test: Virustatic activity: supernatant of infected human cells after inoculation with extract; type: cell-based
From the text: as §1
The definition of virustatic activity is then identified via the supernatant of infected human cells after inoculation with extract. Aciclovir is the accepted positive control.

[3] = Inactivation of superoxide anions after stimulation with PMA (colour reduction); settings: test concentration 200 μg/ml, versus untreated control (0% inactivation)
Experimental: The concentration of oxygen radicals (superoxide anions) is regarded as measure for oxidative stress in organic tissues. By means of quantifying superoxide anions with a color reduction after stimulating with phorbol-12-myristat-13-acetate (PMA), the following antioxidative capacities have been recorded (test concentration 200 μg/ml) in comparison to an untreated control (0% inactivation): […]

[4] = target: neuraminidase of Clostridium perfringens; settings: read-out: IC 50 neuraminidase, Zanamivir column

## Nc1nc2c(ncn2COCCO)c(=O)[nH]1 [Aciclovir]
[1]
  IC 50 Virucidal: ineffective
[2]; Human alphaherpesvirus 1, Herpes Simplex Virus I, read-out: IC 50 Virustatic
  IC50: 0.0002 mg/mL (≈ 0.000888 mM)

## CCO [Ethanol]
[1]; Human alphaherpesvirus 1, read-out: IC 50 Virucidal
  IC50: 80 mg/mL (≈ 1740 mM)
[2]; Herpes Simplex Virus I
  IC 50 Virustatic: ineffective

## O=C1O[C@H]([C@@H](O)CO)C(O)=C1O [Vitamin C]
[3]
  Antioxidative capacity, inactivation of superoxide anions: 96.6%

## CC(=O)N[C@H]1[C@H]([C@H](O)[C@H](O)CO)OC(C(=O)O)=C[C@@H]1N=C(N)N [Zanamivir]
[4]
  IC50: > 200 µM
